For assay [1], the target named is T1, Choline kinase alpha (ChoK) (Homo sapiens, UniProt P35790). Nature of the assay: […]-choline phosphorylation in MDA-MB-231 cells. Type of assay: cell-based.
Assay [2] deals with T1, Choline kinase alpha (ChoK). Nature of the assay: […]-choline phosphorylation in intact MDA-MB-231 cells, […] h. The format is cell-based.

T1 sequence (P35790 whole entry): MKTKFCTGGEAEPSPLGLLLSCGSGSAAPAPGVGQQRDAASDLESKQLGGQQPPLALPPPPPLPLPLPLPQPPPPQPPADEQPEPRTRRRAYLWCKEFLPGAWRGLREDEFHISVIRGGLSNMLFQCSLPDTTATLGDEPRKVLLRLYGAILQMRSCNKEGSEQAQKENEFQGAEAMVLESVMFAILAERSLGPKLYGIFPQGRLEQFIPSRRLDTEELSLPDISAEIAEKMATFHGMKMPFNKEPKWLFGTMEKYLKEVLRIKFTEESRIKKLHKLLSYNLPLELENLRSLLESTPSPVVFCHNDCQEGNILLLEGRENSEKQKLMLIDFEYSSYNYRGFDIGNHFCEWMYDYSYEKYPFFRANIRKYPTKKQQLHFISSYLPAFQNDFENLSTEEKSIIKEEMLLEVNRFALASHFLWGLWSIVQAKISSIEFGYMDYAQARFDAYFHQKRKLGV

Turning to `CC1(C)C(/C=C/C=C/C=C/C=C2\N(CCO)c3ccccc3C2(C)C)=[N+](CCO)c2ccccc21` [JAS239, 1-(2-hydroxyethyl)-2-((1E,3E,5E)-7-((Z/E)-1-(2-hydroxyethyl)-3,3-dimethylindolin-2-ylidene)hepta-1,3,5-trien-1-yl)-3,3-dimethyl-3H-indol-1-ium chloride], in assay [1], the IC50 was found to be 4.6 µM. For `CN(C)c1cc[n+](Cc2ccc(CCCCc3ccc(C[n+]4ccc(N(C)C)cc4)cc3)cc2)cc1` [MN58b, 1,1′-((butane-1,4-diylbis(4,1-phenylene))bis(methylene))bis(4-(dimethylamino)pyridin-1-ium) bromide], it took 2.3 µM to reach half-maximal inhibition in assay [2] (IC50).

What is called IC50 is the concentration at which inhibition is half-maximal. A higher IC50 goes with weaker potency in that assay.

Source of the values: paper PMC4209917 (Molecular cancer therapeutics, 2014).
